Laboratory results reported in ChEMBL document CHEMBL1152098, “A new rearranged cholestane glycoside from ornithogalum saundersiae bulbs exhibiting potent cytostatic activities on leukemia HL-60 and molt-4 cells” (Bioorg Med Chem Lett, 1996).

Tests used:
MOLT-4 = assay: Compound was tested for its anticancer activity against human T-lymphocytic leukemia MOLT-4 cells.; format: functional, cell-based
HL-60 = assay: Compound was tested for its anticancer activity against HL-60 cells.; format: functional, cell-based; settings: Homo sapiens

IC50 (MOLT-4) [nM]	IC50 (HL-60) [nM]	SMILES
3.2	9.2	COc1ccc(C(=O)O[C@@H]2[C@H](O)[C@@H](O)[C@H](O[C@@H]3[C@H](O[C@H]4CC[C@@]5(C)C(=CC[C@H]6[C@@H]7C[C@@H]8O[C@@H](O)[C@H](C=C(C)C)[C@]9(C)O[C@@H](OC)C7(CC[C@@H]65)[C@H]89)C4)O[C@@H](CO)[C@@H](O)[C@@H]3O)O[C@H]2C)cc1 (stereo not given in full)
35		COc1cccc2c1C(=O)c1c(O)c3c(c(O)c1C2=O)C[C@@](O)(C(=O)CO)C[C@@H]3O[C@H]1C[C@H](N)[C@H](O)[C@H](C)O1 [DOXORUBICIN]
38		COc1cc([C@@H]2c3cc4c(cc3[C@@H](O[C@@H]3O[C@@H]5CO[C@@H](C)O[C@H]5[C@H](O)[C@H]3O)[C@H]3COC(=O)[C@H]23)OCO4)cc(OC)c1O [ETOPOSIDE]
48		CN(Cc1cnc2nc(N)nc(N)c2n1)c1ccc(C(=O)N[C@@H](CCC(=O)O)C(=O)O)cc1 [METHOTREXATE]
